Data from patent US20190069544A1, “COMPOSITION COMPRISING A MEL, A FATTY ACID METHYL ESTER AND A NON-IONIC […] A HLB VALUE GREATER THAN OR EQUAL TO 12” (OLEON NV, priority 2016, published 2019).

What was measured:
[1] = test system: chenopodium plants (Chenopodium album); test: Cell activity of plant roots by fluorescent markers after treatment; assay type: in vivo; settings: 24 to 48 h after treatment, 500 g/ha, 2% ammonium sulphate (FIG. 10)
Experimental: (§1) Composition 2 according to the invention prepared in Example 1 was used in combination with an herbicide active ingredient (glyphosate) in the treatment of chenopodium plants (Chenopodium album). The chenopodium plants used were at a 2 to 3 leaves stage (BBCH 12-13), and were grown in a phytotron at a temperature of 15° C. during the night and 20° C. during the day, with a photoperiod of 14 hours. The glyphosate used was non-formulated (technical ingredient, reference 4521, Sigma-Aldrich®). […]
The evaluation of the effectiveness was carried out by measuring the cell activity of the roots of the plants 24 to 48 h after treatment. The cell activity is measured by staining the cells using fluorescent markers making it possible to distinguish: • the cells having a metabolic activity (living cells), which emit a green fluorescence; • the structures which emit a blue fluorescence; and • the dead cells, which emit a red fluorescence.
When the cell metabolic activity reduces, the green fluorescence reduces.

[2] = test system: chenopodium plants (Chenopodium album); test: Herbicide effectiveness: destruction of the vegetation, naked eye, 14 days after treatment; assay type: in vivo
Experimental: as §1
Evaluation of the effectiveness was also carried out by observation of the plants with the naked eye 14 days after treatment. The effectiveness is evaluated in percentage of destruction of the vegetation, taking into account the size of the plants and the symptoms of phytotoxicity such as deformation of the leaves, the appearance of white patches and necrosis.

For O=C(O)CNCP(=O)(O)O [glyphosate], the “Reduction in the intensity of the fluorescence in the cells of the roots (cell metabolic activity)” value [1] was “not observed”, the “Phytotoxicity, in words” value ([2]; 14 days after treatment (FIGS. 11, 12)) was “not observed” and the “Effectiveness (average), percentage of destruction of the vegetation” value ([2]; 14 days after treatment, dose 500 g/ha, 2% ammonium sulphate, average of 4 pots of 4 plants) was 0%.
